Measured values taken from PubChem BioAssay (NCI).
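How tested: cells in 96-well plates exposed to compound for 48 hours at five concentrations. TGI is the concentration that stops growth completely.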

Legend:
Experiment in all cases: NCI-60 cell line screen, 48 h
ACHN renal = test system: ACHN renal
HOP-92 NSCLC = test system: HOP-92 NSCLC
MALME-3M melanoma = test system: MALME-3M melanoma
MOLT-4 leukemia = test system: MOLT-4 leukemia
RPMI-8226 leukemia = test system: RPMI-8226 leukemia
SK-MEL-28 melanoma = test system: SK-MEL-28 melanoma
SK-OV-3 ovarian = test system: SK-OV-3 ovarian
SW-620 colon = test system: SW-620 colon
UO-31 renal = test system: UO-31 renal
CAKI-1 renal = test system: CAKI-1 renal
NCI-H522 lung = test system: NCI-H522 lung
OVCAR-5 ovarian = test system: OVCAR-5 ovarian
DU-145 prostate = test system: DU-145 prostate

Measured: TGI

OC1=CN=C(C2CC2)Oc2ccccc21
not listed: CAKI-1 renal | NCI-H522 lung | OVCAR-5 ovarian | DU-145 prostate
> 100 µM: all other assays above

Cc1ccc(S(=O)(=O)C(C#N)c2nc3ccccc3nc2N2CCOCC2)cc1 (centres undefined)
65 µM: CAKI-1 renal
63.5 µM: MALME-3M melanoma
87.6 µM: RPMI-8226 leukemia
37.3 µM: NCI-H522 lung
58.7 µM: MOLT-4 leukemia
51.9 µM: SK-MEL-28 melanoma
not listed: HOP-92 NSCLC | DU-145 prostate
> 100 µM: all other assays above

CCOC(=O)c1ncn2c1[nH]c(=O)c1ccccc12
not listed: HOP-92 NSCLC | SK-OV-3 ovarian | CAKI-1 renal | DU-145 prostate
> 100 µM: all other assays above

c1csc(-c2cscc2-c2cccs2)c1
8.22 µM: DU-145 prostate
not listed: MALME-3M melanoma | NCI-H522 lung
> 100 µM: all other assays above

c1ccc2c(c1)ncn2CCn1ccnc1
not listed: HOP-92 NSCLC | CAKI-1 renal
> 100 µM: all other assays above

O=C(OCC(Cl)(Cl)Cl)N1CC[C@@H](C2CCCCC2)C1
49.7 µM: ACHN renal
50.6 µM: OVCAR-5 ovarian
40.2 µM: UO-31 renal
76.5 µM: CAKI-1 renal
> 100 µM: DU-145 prostate | SK-OV-3 ovarian
43.1 µM: NCI-H522 lung
56.4 µM: MOLT-4 leukemia

c1csc(-c2ccc(-c3ccsc3)s2)c1
not listed: DU-145 prostate
> 100 µM: all other assays above

O=[N+]([O-])c1ccc(/C=N/n2c(CCc3n[nH]c(=S)n3/N=C/c3ccc([N+](=O)[O-])o3)n[nH]c2=S)o1
33.6 µM: HOP-92 NSCLC
89.9 µM: UO-31 renal
31.5 µM: SK-MEL-28 melanoma
47.3 µM: NCI-H522 lung
32.7 µM: SW-620 colon
29.7 µM: DU-145 prostate
> 100 µM: OVCAR-5 ovarian | RPMI-8226 leukemia | SK-OV-3 ovarian
63.9 µM: MOLT-4 leukemia
44.8 µM: CAKI-1 renal
63.4 µM: ACHN renal

CCNC(=S)Nc1c(C#N)c2n(c1C(=O)OCC)CCCCC2
not listed: MALME-3M melanoma | NCI-H522 lung | OVCAR-5 ovarian
> 100 µM: all other assays above

N#Cc1nc(-c2ccccc2O)oc1N
not listed: MALME-3M melanoma | UO-31 renal | NCI-H522 lung
> 100 µM: all other assays above

CC(C)(C)OC(=O)N(CCCCNC(=O)c1ccccc1)CCCNC(=O)c1ccccc1
not listed: MALME-3M melanoma
> 100 µM: all other assays above

O=C1CC(NCCCNC2CC(=O)c3c(Br)sc(Br)c32)c2c(Br)sc(Br)c21 (centres undefined)
3.55 µM: ACHN renal
4.85 µM: OVCAR-5 ovarian
> 24.3 µM: SK-MEL-28 melanoma
4.21 µM: MALME-3M melanoma
3.64 µM: DU-145 prostate
14.9 µM: SK-OV-3 ovarian
1.21 µM: MOLT-4 leukemia
> 100 µM: RPMI-8226 leukemia | SW-620 colon
3.77 µM: CAKI-1 renal

CCOC(=O)C1=COC(C)(C)CC1=O
not listed: HOP-92 NSCLC | MALME-3M melanoma
> 100 µM: all other assays above

Cc1ccc([S+](c2ccccc2)c2cc(C)ccc2C)cc1 (centres undefined)
> 100 µM: ACHN renal | CAKI-1 renal | MALME-3M melanoma | MOLT-4 leukemia | RPMI-8226 leukemia | SW-620 colon | UO-31 renal
28.2 µM: NCI-H522 lung

CC12OC3(C(O)C1O)C(C(=O)O[C@H]3CO[Si](C)(C)C(C)(C)C)C2S(=O)(=O)c1ccccc1 (some centres undefined)
70.8 µM: RPMI-8226 leukemia
55.7 µM: MOLT-4 leukemia
47.2 µM: NCI-H522 lung
not listed: MALME-3M melanoma | CAKI-1 renal
> 100 µM: all other assays above

COC(=O)NN/C=C(\C=Nc1ccccc1)[N+](=O)[O-]
not listed: MALME-3M melanoma | CAKI-1 renal | OVCAR-5 ovarian | DU-145 prostate
> 100 µM: all other assays above
